The values that follow come from PubChem BioAssay (NCI).

Test systems include SNB-19 CNS; 786-0 renal; M14 melanoma; HOP-62 NSCLC; COLO 205 colon; LOX IMVI melanoma; U251 CNS; OVCAR-3 ovarian; RXF 393 renal; XF 498 CNS.
Common to all, as to assay: NCI-60 cell line screen, 48 h

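These data come from cells grown in 96-well plates and exposed to compound for 48 hours at five concentrations. GI50: concentration for 50% inhibition of growth. The concentration for full growth arrest is given as TGI.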

Regarding `CC(=O)[CH-]C(=O)c1ccccc1.CC(=O)[CH-]C(=O)c1ccccc1.CC1(C)OCC(C2OC3OC(C)(C)OC3C2[O-])O1.CC[O-].[Ti+4]` (centres undefined), the GI50 was 12.4 µM in the assay with SNB-19 CNS; 18.4 µM with 786-0 renal; 16.3 µM with M14 melanoma; 15.9 µM with HOP-62 NSCLC; 17 µM in the assay with COLO 205 colon; 14.7 µM with LOX IMVI melanoma. Besides, the GI50 in the assay on U251 CNS was 13.1 µM; in the assay with OVCAR-3 ovarian, 11.7 µM; with RXF 393 renal, 3.36 µM. The TGI with SNB-19 CNS amounted to 25.4 µM; in the assay with 786-0 renal it was 36 µM; in the assay with M14 melanoma it was 36.1 µM; with HOP-62 NSCLC, 31.1 µM; in the assay on COLO 205 colon, 32.5 µM; in the assay on LOX IMVI melanoma, 29.8 µM. Also, the values for the TGI in the assay on U251 CNS, in the assay on OVCAR-3 ovarian and with RXF 393 renal were 28.3 µM, 30.2 µM and 14.9 µM, respectively.
As to `Clc1ccc2c(c1)N(c1ncnc3ccc(-c4cnc5[nH]ncc5c4)cc13)CC2`, the GI50 with SNB-19 CNS is 1.46 µM; in the assay on 786-0 renal, 0.689 µM; in the assay on M14 melanoma, 0.869 µM; with HOP-62 NSCLC it was 0.463 µM; in the assay on COLO 205 colon it was 0.695 µM; in the assay on LOX IMVI melanoma, 0.338 µM. Further, the GI50 in the assay on U251 CNS is 9.79 µM; with OVCAR-3 ovarian, 0.471 µM; in the assay on RXF 393 renal it was 0.229 µM. Further, the TGI in the assay on SNB-19 CNS, in the assay with 786-0 renal, in the assay with M14 melanoma, in the assay on HOP-62 NSCLC, with COLO 205 colon and in the assay on LOX IMVI melanoma was > 100 µM each time. The TGI was > 100 µM in the assay with U251 CNS, > 100 µM in the assay on OVCAR-3 ovarian and 0.97 µM in the assay on RXF 393 renal.
On to `Cc1cccc(N(CC(=O)O)S(=O)(=O)c2ccccc2)c1`, for which the TGI with SNB-19 CNS, with 786-0 renal, in the assay on M14 melanoma, with COLO 205 colon, in the assay with XF 498 CNS and with LOX IMVI melanoma was > 100 µM each time. For the same molecule, the TGI in the assay with U251 CNS, in the assay with OVCAR-3 ovarian and in the assay on RXF 393 renal was > 100 µM each time.
As for `O=C(O)c1ccccc1C(=O)c1ccc2c(c1)Cc1ccccc1-2`, the TGI in the assay on SNB-19 CNS, in the assay with 786-0 renal, in the assay with M14 melanoma, in the assay on HOP-62 NSCLC, with COLO 205 colon and in the assay on LOX IMVI melanoma was > 100 µM each time. In addition, the TGI in the assay with U251 CNS, in the assay on OVCAR-3 ovarian and in the assay with RXF 393 renal was > 100 µM each time.
In the case of `COc1ccc(C2Oc3c(c(O)cc4c3[C@H](c3ccc(O)cc3O)[C@H](O)C(c3ccc(O)c(O)c3)O4)C[C@@H]2O)cc1O` (some centres undefined), the TGI in the assay on SNB-19 CNS, in the assay with 786-0 renal, with M14 melanoma, in the assay on HOP-62 NSCLC, in the assay on COLO 205 colon and in the assay with LOX IMVI melanoma was > 100 µM each time. For the same molecule, the TGI in the assay on U251 CNS, in the assay with OVCAR-3 ovarian and in the assay with RXF 393 renal was > 100 µM in each case.
For the molecule `N#CC(C#N)=c1c2nsnc2c(=C(C#N)C#N)c2nsnc12`, the TGI with SNB-19 CNS came to 4.33 µM; in the assay on 786-0 renal, 17.9 µM; in the assay with M14 melanoma it was 3.54 µM; in the assay with HOP-62 NSCLC, 3.59 µM; in the assay with COLO 205 colon, 4.83 µM; in the assay with LOX IMVI melanoma, 3 µM. The TGI in the assay with U251 CNS turned out to be 3.19 µM; in the assay on OVCAR-3 ovarian, 8.34 µM; with RXF 393 renal it was 2.61 µM.
On to `N#Cc1c(-c2ccco2)cc(-c2ccccc2)[nH]c1=O`, for which the TGI in the assay with SNB-19 CNS, with 786-0 renal, in the assay on M14 melanoma, in the assay on HOP-62 NSCLC, in the assay with COLO 205 colon and in the assay with LOX IMVI melanoma was > 100 µM throughout. The TGI in the assay with U251 CNS, in the assay on OVCAR-3 ovarian and with RXF 393 renal was > 100 µM each time.
Regarding `COc1cc2nc(-c3ccc(C(F)(F)F)cc3)cc(OCCCN3CCCC3)c2cc1OC`, the GI50 in the assay with SNB-19 CNS is 5.23 µM; in the assay on 786-0 renal, 1.88 µM; in the assay with M14 melanoma it was 0.303 µM; in the assay on HOP-62 NSCLC, 1.42 µM; in the assay on COLO 205 colon, 0.398 µM; in the assay on LOX IMVI melanoma, 0.116 µM. The GI50 was 1.31 µM with U251 CNS, 4.07 µM in the assay on OVCAR-3 ovarian and 0.448 µM in the assay on RXF 393 renal. Further, the TGI was found to be 21.5 µM in the assay with SNB-19 CNS; 6.03 µM in the assay with 786-0 renal; 1.05 µM in the assay with M14 melanoma; 18.5 µM in the assay on HOP-62 NSCLC; 4.54 µM with COLO 205 colon; 0.322 µM in the assay with LOX IMVI melanoma. The TGI is 18.8 µM with U251 CNS, > 42.2 µM in the assay on OVCAR-3 ovarian and 3.85 µM in the assay with RXF 393 renal.
On to `Cc1ccc(NC(=O)/C(Cc2nc3ccc([N+](=O)[O-])cc3[nH]c2=O)=N\NC(=O)C[n+]2ccccc2)c(C)c1`, for which the TGI is > 100 µM in the assay on SNB-19 CNS; 79.9 µM in the assay on 786-0 renal; > 100 µM with M14 melanoma; > 100 µM with HOP-62 NSCLC; > 100 µM in the assay on COLO 205 colon; > 100 µM in the assay with LOX IMVI melanoma. Also, the TGI in the assay on U251 CNS was > 100 µM; in the assay on OVCAR-3 ovarian, 59.3 µM; in the assay with RXF 393 renal it was 73.1 µM.
`COC(=O)c1ccc2c(c1)C(=O)c1c-2n(CCCN=[N+]=[N-])c(=O)c2cc([N+](=O)[O-])ccc12`: the GI50 was 47.4 µM with SNB-19 CNS; 25.1 µM with 786-0 renal; > 100 µM in the assay on M14 melanoma; 25.8 µM with HOP-62 NSCLC; > 100 µM with COLO 205 colon; 61.6 µM in the assay with LOX IMVI melanoma. In addition, the GI50 is 18 µM with U251 CNS, > 100 µM in the assay on OVCAR-3 ovarian and 37.3 µM in the assay on RXF 393 renal. Further, the TGI is > 100 µM with SNB-19 CNS; 79 µM in the assay with 786-0 renal; > 100 µM with M14 melanoma; 67.5 µM in the assay with HOP-62 NSCLC; > 100 µM in the assay with COLO 205 colon; > 100 µM with LOX IMVI melanoma. Moreover, the TGI is 48.8 µM in the assay with U251 CNS, > 100 µM in the assay on OVCAR-3 ovarian and > 100 µM in the assay with RXF 393 renal.
Consider `O=c1[nH]c2cc([N+](=O)[O-])ccc2nc1/C(=N\Nc1ccccc1)C(O)c1ccc2c(c1)OCO2` (centres undefined), for which the TGI with SNB-19 CNS, in the assay on 786-0 renal, with M14 melanoma, in the assay with HOP-62 NSCLC, in the assay with COLO 205 colon and in the assay on LOX IMVI melanoma was > 100 µM throughout. Further, the TGI in the assay on U251 CNS, with OVCAR-3 ovarian and in the assay with RXF 393 renal was > 100 µM throughout.
For `Cc1cccc(C)c1N1C(=O)C(=O)C(c2nc3ccccc3s2)/C(=N/NC(=O)NN)C1=O` (centres undefined), the TGI in the assay with SNB-19 CNS, in the assay with 786-0 renal, with M14 melanoma, in the assay on HOP-62 NSCLC, in the assay with COLO 205 colon and in the assay on XF 498 CNS was > 100 µM throughout. For the same molecule, the TGI in the assay with U251 CNS, with OVCAR-3 ovarian and in the assay with RXF 393 renal was > 100 µM throughout.
